Where “and” joins values, the source holds several entries; their conditions need not be identical. Identical values can stand only once. Where a SMILES comes first, the peptide text is derived from it. [ ]: non-standard residue; d: D form. Hyp = O=C(O)[C@@H]1C[C@@H](O)CN1
Tested on: IL-8
Experiment: Example 9 Luminex, LPS hPBMCs: IL-8
Type: cell-based, human
Procedure: Treatment Human PBMCs were pretreated with YY-101, YDE-011 and YDE-043 or reference compound; Xiidra® at various concentration (ranging from 1 nM to 100 uM) for 2 h before stimulation. An equal volume of 0.5% DMSO was used as a vehicle control. Then, the cells were treated with LPS at 5 ug/ml. The supernatants from treated cells were harvested at 24 h and placed in a 96 well for Luminex cytokine & chemokine profiling using a Luminex 200 multiplex assay (Luminex; R&D system, USA).
The main study arm with triplicate wells per group in a 24-well plate: • 1. Blank • 2. PBMC: 0.5% DMSO • 3. PBMC+LPS (5 ug/ml) • 4. PBMC+YY-101 100 uM • 5. PBMC+YY-101 10 uM • 6. PBMC+YY-101 1 uM • 7. PBMC+YY-101 0.1 uM • 8. PBMC+YY-101 0.01 uM • 9. PBMC+LPS (5 ug/ml)+Xiidra®100 uM • 10. PBMC+LPS (5 ug/ml)+Xiidra® 10 uM • 11. PBMC+LPS (5 ug/ml)+Xiidra® 1 uM • 12. PBMC+LPS (5 ug/ml)+Xiidra®0.1 uM • 13. PBMC+LPS (5 ug/ml)+Xiidra®0.01 uM • 14. PBMC+LPS (5 ug/ml)+Xiidra®0.001 uM • 15. PBMC+LPS (5 ug/ml)+YY-101 100 uM • 16. PBMC+LPS (5 ug/ml)+YY-101 10 uM • 17. PBMC+LPS (5 ug/ml)+YY-101 1 uM • 18. PBMC+LPS (5 ug/ml)+YY-101 0.1 uM • 19. PBMC+LPS (5 ug/ml)+YY-101 0.01 uM • 20. PBMC+LPS (5 ug/ml)+YY-101 0.001 uM • 21. PBMC+LPS (5 ug/ml)+YDE-011 100 uM • 22. PBMC+LPS (5 ug/ml)+YDE-011 10 uM • 23. PBMC+LPS (5 ug/ml)+YDE-011 1 uM • 24. PBMC+LPS (5 ug/ml)+YDE-011 0.1 uM • 25. PBMC+LPS (5 ug/ml)+YDE-011 0.01 uM • 26. PBMC+LPS (5 ug/ml)+YDE-011 0.001 uM • 27. PBMC+LPS (5 ug/ml)+YDE-043 100 uM • 28. PBMC+LPS (5 ug/ml)+YDE-043 10 uM • 29. PBMC+LPS (5 ug/ml)+YDE-043 1 uM • 30. PBMC+LPS (5 ug/ml)+YDE-043 0.1 uM • 31. PBMC+LPS (5 ug/ml)+YDE-043 0.01 uM • 32. PBMC+LPS (5 ug/ml)+YDE-043 0.001 uM
Multiplex assay was used to measure 30 cytokines and chemokines. The 1:2, 1:10 and 1:200 diluted cell supernatant and serial dilution of the standard were dispensed into a 96 well plate at 50 ul/well. Then, the pre-mixed cocktail of antibody-coated magnetic beads was dispensed at 50 ul/well and incubated at room temperature for 2 h in a horizontal orbital microplate shaker at 800±500 rpm. The beads were washed using a magnetic device to prevent loss. The biotin-antibody was dispensed in 50 ul of each well and incubated at room temperature for 1 h in a shaker at 800±500 rpm. After washing, streptavidin-PE was added at 50 ul/well and incubated at room temperature for 30 min in a shaker under the same conditions. Finally, after washing, wash buffer (100 ul/well) was added to the plate and incubated in a shaker for 2 min. The Luminex™ 200 setting were set according to the manufacturer's protocol. The data was calculated with a standard five-parameter logistic nonlinear regression analysis of the data (xPonent software 4.2, USA). The levels of cytokine/chemokine are normalized to the live cell counts (1×10^5 cells/mL) and presented as concentrations per mL (pg/mL or ng/mL).

[1] = PBMC + LPS(5 ug/ml) + test article 0.001 uM, Mean
[2] = PBMC + LPS(5 ug/ml) + test article 0.001 uM, single replicates (1st, 2nd, 3rd)
[3] = PBMC + LPS(5 ug/ml) + test article 0.01 uM, Mean
[4] = PBMC + LPS(5 ug/ml) + test article 0.01 uM, single replicates (1st, 2nd, 3rd)
[5] = PBMC + LPS(5 ug/ml) + test article 0.1 uM, Mean
[6] = PBMC + LPS(5 ug/ml) + test article 0.1 uM, single replicates (1st, 2nd, 3rd)
[7] = PBMC + LPS(5 ug/ml) + test article 1 uM, Mean
[8] = PBMC + LPS(5 ug/ml) + test article 1 uM, single replicates (1st, 2nd, 3rd)
[9] = PBMC + LPS(5 ug/ml) + test article 10 uM, Mean
[10] = PBMC + LPS(5 ug/ml) + test article 10 uM, single replicates (1st, 2nd, 3rd)
[11] = PBMC + LPS(5 ug/ml) + test article 100 uM, Mean
[12] = PBMC + LPS(5 ug/ml) + test article 100 uM, single replicates (1st, 2nd, 3rd)
[13] = PBMC + test article 0.01 uM, no LPS, Mean
[14] = PBMC + test article 0.01 uM, no LPS, single replicates (1st, 2nd)
[15] = PBMC + test article 0.1 uM, no LPS, Mean
[16] = PBMC + test article 0.1 uM, no LPS, single replicates (1st, 2nd)
[17] = PBMC + test article 1 uM, no LPS, Mean
[18] = PBMC + test article 1 uM, no LPS, single replicates (1st, 2nd)
[19] = PBMC + test article 10 uM, no LPS, Mean
[20] = PBMC + test article 10 uM, no LPS, single replicates (1st, 2nd)
[21] = PBMC + test article 100 uM, no LPS, Mean
[22] = PBMC + test article 100 uM, no LPS, single replicates (1st, 2nd)

Compound: CC(C)C[C@H](NC(=O)CNC(=O)[C@H](CC(=O)O)NC(=O)[C@H](CCC(N)=O)NC(=O)CNC(=O)[C@@H]1C[C@@H](O)CN1)C(=O)N[C@@H](C)C(=O)NCC(=O)N1CCC[C@H]1C(=O)N[C@@H](CCCCN)C(=O)O [YY-101] (H-[Hyp]GQDGLAGPK-OH; N-terminus and C-terminus assumed)
- Concentration [1]: 47261.8 pg/mL
- conc/live cell [1]: 7362.6 pg/10^5
- Concentration [2]: 45291.5 pg/mL and 44844.4 pg/mL and 51649.5 pg/mL
- conc/live cell [2]: 7945.9 pg/10^5 and 6316.1 pg/10^5 and 7825.7 pg/10^5
- Concentration [3]: 45595.7 pg/mL
- conc/live cell [3]: 7399.0 pg/10^5
- Concentration [4]: 45499.3 pg/mL and 44844.4 pg/mL and 46443.3 pg/mL
- conc/live cell [4]: 7109.3 pg/10^5 and 7474.1 pg/10^5 and 7613.7 pg/10^5
- Concentration [5]: 41918.3 pg/mL
- conc/live cell [5]: 7205.6 pg/10^5
- Concentration [6]: 41283.9 pg/mL and 42997.0 pg/mL and 41473.9 pg/mL
- conc/live cell [6]: 6658.7 pg/10^5 and 8268.7 pg/10^5 and 6689.3 pg/10^5
- Concentration [7]: 46108.9 pg/mL
- conc/live cell [7]: 7089.9 pg/10^5
- Concentration [8]: 45195.7 pg/mL and 45259.6 pg/mL and 47871.4 pg/mL
- conc/live cell [8]: 7173.9 pg/10^5 and 6374.6 pg/10^5 and 7721.2 pg/10^5
- Concentration [9]: 46679.5 pg/mL
- conc/live cell [9]: 7101.0 pg/10^5
- Concentration [10]: 46315.2 pg/mL and 50742.2 pg/mL and 42981.1 pg/mL
- conc/live cell [10]: 7719.2 pg/10^5 and 7928.5 pg/10^5 and 5655.4 pg/10^5
- Concentration [11]: 46500.3 pg/mL
- conc/live cell [11]: 8028.8 pg/10^5
- Concentration [12]: 48337.8 pg/mL and 46988.3 pg/mL and 44174.7 pg/mL
- conc/live cell [12]: 7672.7 pg/10^5 and 7578.8 pg/10^5 and 8834.9 pg/10^5
- Concentration [13]: 4859.1 pg/mL
- conc/live cell [13]: 989.4 pg/10^5
- Concentration [14]: 2863.8 pg/mL and 6854.4 pg/mL
- conc/live cell [14]: 550.7 pg/10^5 and 1428.0 pg/10^5
- Concentration [15]: 4413.2 pg/mL
- conc/live cell [15]: 835.0 pg/10^5
- Concentration [16]: 2701.4 pg/mL and 6125.1 pg/mL
- conc/live cell [16]: 614.0 pg/10^5 and 1056.0 pg/10^5
- Concentration [17]: 4580.5 pg/mL
- conc/live cell [17]: 832.8 pg/10^5
- Concentration [18]: 4461.8 pg/mL and 4699.1 pg/mL
- conc/live cell [18]: 811.2 pg/10^5 and 854.4 pg/10^5
- Concentration [19]: 21138.7 pg/mL
- conc/live cell [19]: 3322.0 pg/10^5
- Concentration [20]: 37311.2 pg/mL and 4966.2 pg/mL
- conc/live cell [20]: 5829.9 pg/10^5 and 814.1 pg/10^5
- Concentration [21]: 15311.8 pg/mL
- conc/live cell [21]: 2320.9 pg/10^5
- Concentration [22]: 19929.7 pg/mL and 10693.9 pg/mL
- conc/live cell [22]: 3114.0 pg/10^5 and 1527.7 pg/10^5

Compound: CC(C)C[C@H](NC(=O)CNC(=O)[C@H](CC(C)C)NC(=O)[C@H](CCC(N)=O)NC(=O)CNC(=O)[C@@H]1C[C@@H](O)CN1)C(=O)N[C@@H](C)C(=O)NCC(=O)N1CCC[C@H]1C(=O)N[C@@H](CCCCN)C(=O)O [YDE-011] (H-[Hyp]GQLGLAGPK-OH)
- Concentration [1]: 26175.1 pg/mL
- conc/live cell [1]: 4943.8 pg/10^5
- Concentration [2]: 25949.1 pg/mL and 25243.2 pg/mL and 27333.0 pg/mL
- conc/live cell [2]: 5766.5 pg/10^5 and 4352.3 pg/10^5 and 4712.6 pg/10^5
- Concentration [3]: 27857.4 pg/mL
- conc/live cell [3]: 4784.6 pg/10^5
- Concentration [4]: 29106.4 pg/mL and 27148.3 pg/mL and 27317.6 pg/mL
- conc/live cell [4]: 4694.6 pg/10^5 and 5323.2 pg/10^5 and 4336.1 pg/10^5
- Concentration [5]: 25867.3 pg/mL
- conc/live cell [5]: 4548.1 pg/10^5
- Concentration [6]: 25672.8 pg/mL and 26225.6 pg/mL and 25703.5 pg/mL
- conc/live cell [6]: 3889.8 pg/10^5 and 5245.1 pg/10^5 and 4509.4 pg/10^5
- Concentration [7]: 25627.6 pg/mL
- conc/live cell [7]: 5106.9 pg/10^5
- Concentration [8]: 26271.7 pg/mL and 26379.3 pg/mL and 24231.7 pg/mL
- conc/live cell [8]: 4776.7 pg/10^5 and 5495.7 pg/10^5 and 5048.3 pg/10^5
- Concentration [9]: 25105.4 pg/mL
- conc/live cell [9]: 4765.2 pg/10^5
- Concentration [10]: 25626.7 pg/mL and 25335.2 pg/mL and 24354.2 pg/mL
- conc/live cell [10]: 4745.7 pg/10^5 and 4368.1 pg/10^5 and 5181.8 pg/10^5
- Concentration [11]: 26038.5 pg/mL
- conc/live cell [11]: 4290.3 pg/10^5
- Concentration [12]: 27702.6 pg/mL and 26563.8 pg/mL and 23849.1 pg/mL
- conc/live cell [12]: 4541.4 pg/10^5 and 4354.7 pg/10^5 and 3974.8 pg/10^5

Compound: CC(C)C[C@H](NC(=O)[C@H](CCC(N)=O)NC(=O)CNC(=O)[C@@H]1C[C@@H](O)CN1)C(=O)NCC(=O)O [YDE-043] (H-[Hyp]GQLG-OH; N-terminus and C-terminus assumed)
- Concentration [1]: 27612.8 pg/mL
- conc/live cell [1]: 5610.5 pg/10^5
- Concentration [2]: 25319.8 pg/mL and 28134.2 pg/mL and 29384.5 pg/mL
- conc/live cell [2]: 5754.5 pg/10^5 and 4689.0 pg/10^5 and 6387.9 pg/10^5
- Concentration [3]: 27805.6 pg/mL
- conc/live cell [3]: 5331.3 pg/10^5
- Concentration [4]: 28010.8 pg/mL and 27056.0 pg/mL and 28350.1 pg/mL
- conc/live cell [4]: 6224.6 pg/10^5 and 4099.4 pg/10^5 and 5670.0 pg/10^5
- Concentration [5]: 26729.6 pg/mL
- conc/live cell [5]: 4969.6 pg/10^5
- Concentration [6]: 27502.4 pg/mL and 24737.2 pg/mL and 27949.2 pg/mL
- conc/live cell [6]: 5500.5 pg/10^5 and 4417.4 pg/10^5 and 4990.9 pg/10^5
- Concentration [7]: 26441.2 pg/mL
- conc/live cell [7]: 4990.4 pg/10^5
- Concentration [8]: 27517.8 pg/mL and 23008.1 pg/mL and 28797.5 pg/mL
- conc/live cell [8]: 4744.4 pg/10^5 and 4793.4 pg/10^5 and 5433.5 pg/10^5
- Concentration [9]: 29354.3 pg/mL
- conc/live cell [9]: 5450.9 pg/10^5
- Concentration [10]: 28998.3 pg/mL and 34618.6 pg/mL and 24446.1 pg/mL
- conc/live cell [10]: 5576.6 pg/10^5 and 6410.8 pg/10^5 and 4365.4 pg/10^5
- Concentration [11]: 25505.9 pg/mL
- conc/live cell [11]: 4053.3 pg/10^5
- Concentration [12]: 26994.4 pg/mL and 24017.4 pg/mL
- conc/live cell [12]: 4353.9 pg/10^5 and 3752.7 pg/10^5

Reference: patent US20230146455A1, “TREATMENT OF INFLAMMATORY DISEASES WITH PEPTIDES AND PHARMACEUTICAL COMPOSITIONS” (Yuyu Pharma, Inc., priority 2020, published 2023)
